Source: the supplement of paper PMC13380429
± gives the standard deviation of the averaged measurements.

Columns and labels:
Details in all cases: 72 h
Vero E6 [1] = test: relative viability EC50 (midpoint between 100% and the lowest measured viability); higher = less toxic
Caco-2 [2] = test: as above
HepG2 [3] = test: as above
U2OS [4] = test: as above
Calu-3 [5] = test: as above
Vero E6 [6] = test: drug sensitivity score (DSS) for viability; higher = more toxic; extreme values may be limits of the assay
Caco-2 [7] = test: as above
HepG2 [8] = test: as above
U2OS [9] = test: as above
Calu-3 [10] = test: as above
Vero E6 [11] = test: cell viability relative to DMSO; higher = less toxic
Caco-2 [12] = test: as above
HepG2 [13] = test: as above
U2OS [14] = test: as above
Calu-3 [15] = test: as above

Compound | relative viability EC50 (Vero E6 [1]) [µM] | relative viability EC50 (Caco-2 [2]) [µM] | relative viability EC50 (HepG2 [3]) [µM] | relative viability EC50 (U2OS [4]) [µM] | relative viability EC50 (Calu-3 [5]) [µM] | drug sensitivity score (Vero E6 [6]) | drug sensitivity score (Caco-2 [7]) | drug sensitivity score (HepG2 [8]) | drug sensitivity score (U2OS [9]) | drug sensitivity score (Calu-3 [10]) | cell viability (Vero E6 [11]; 1 nM) [%] | cell viability (Vero E6 [11]; 10 nM) [%] | cell viability (Vero E6 [11]; 100 nM) [%] | cell viability (Vero E6 [11]; 1000 nM) [%] | cell viability (Vero E6 [11]; 10000 nM) [%] | cell viability (Caco-2 [12]; 1 nM) [%] | cell viability (Caco-2 [12]; 10 nM) [%] | cell viability (Caco-2 [12]; 100 nM) [%] | cell viability (Caco-2 [12]; 1000 nM) [%] | cell viability (Caco-2 [12]; 10000 nM) [%] | cell viability (HepG2 [13]; 1 nM) [%] | cell viability (HepG2 [13]; 10 nM) [%] | cell viability (HepG2 [13]; 100 nM) [%] | cell viability (HepG2 [13]; 1000 nM) [%] | cell viability (HepG2 [13]; 10000 nM) [%] | cell viability (U2OS [14]; 1 nM) [%] | cell viability (U2OS [14]; 10 nM) [%] | cell viability (U2OS [14]; 100 nM) [%] | cell viability (U2OS [14]; 1000 nM) [%] | cell viability (U2OS [14]; 10000 nM) [%] | cell viability (Calu-3 [15]; 1 nM) [%] | cell viability (Calu-3 [15]; 10 nM) [%] | cell viability (Calu-3 [15]; 100 nM) [%] | cell viability (Calu-3 [15]; 1000 nM) [%] | cell viability (Calu-3 [15]; 10000 nM) [%]
CC(C)n1nnc2cc(C(=O)O)ccc21 [IBC-293] | > 10 | > 10 | > 10 | > 10 | > 10 | 0 | 0 | 0 | 0 | 0 | 96.6 | 98.5 | 102 | 104 | 99.5 | 102 | 98 | 101 | 106 | 95.2 | 93.2 | 105 | 91 | 106 | 102 | 102 | 96 | 98.3 | 97.6 | 98.6 | 94.9 | 91 | 100 | 101 | 103
CCOC(=O)[C@]12CC1/C(=N\O)c1ccccc1O2 (stereo not given in full) [CPCCOEt] | > 10 | > 10 | > 10 | > 10 | > 10 | 0 | 0 | 0 | 0 | 0 | 93.5 | 99.1 | 90.6 | 95.2 | 110 | 103 | 94.7 | 89.2 | 98.8 | 104 | 91.7 | 102 | 93.5 | 104 | 99.2 | 98.7 | 92.2 | 96.4 | 94.4 | 96.4 | 94.1 | 105 | 92.3 | 98.4 | 95.4
Nc1ccc(S(=O)(=O)Nc2nccs2)cc1 [sulfathiazole] | > 10 | > 10 | > 10 | > 10 | > 10 | 0 | 0 | 0 | 0 | 0 | 96.9 | 100 | 97.5 | 104 | 102 | 95.8 | 96.1 | 95.1 | 93.6 | 99 | 102 | 95 | 94.2 | 105 | 116 | 94.2 | 98.5 | 94.3 | 93.6 | 102 | 86.1 | 94.9 | 92.2 | 98 | 89.3
O=C(Cn1c(=O)sc2ccc(Cl)cc21)N1CCN(CCO)CC1 [tiaramide] | > 10 | > 10 | > 10 | > 10 | > 10 | 0 | 0 | 0.2 | 0 | 0 | 107 | 95.2 | 94.3 | 101 | 93.4 | 112 | 91.4 | 96.7 | 96.3 | 101 | 94.9 | 109 | 108 | 88.8 | 89.3 | 101 | 101 | 98.7 | 100 | 98.7 | 92.2 | 101 | 90.6 | 92.4 | 105
C=C[C@H]1CN2CC[C@H]1C[C@H]2[C@H](O)c1ccnc2ccccc12 [cinchonidine] | > 10 | > 10 | > 10 | > 10 | > 10 | 0 | 0 | 0 | 0 | 0 | 104 ± 4 | 105 ± 5.8 | 106 ± 0.21 | 95.55 ± 0.64 | 97.1 ± 1.7 | 94.8 ± 2.2 | 98.6 ± 0.42 | 99.8 ± 11 | 114 ± 16 | 116 ± 5.9 | 104 ± 7.8 | 94.5 ± 1.2 | 97.05 ± 0.35 | 92 ± 0.42 | 94.2 ± 2.8 | 98.35 ± 0.071 | 103 ± 2 | 97.85 ± 0.78 | 102 ± 1.2 | 99.5 ± 4.2 | 95.2 ± 1.6 | 102 ± 2.5 | 100 ± 4 | 98.7 ± 5 | 106 ± 5.8
